The values that follow are results of earlier work, collected in patent US20050123576A1, “Mupirocin compositions for topical use, an improved process of making same and methods of using same” (priority 2003, published 2005).

Molecules are shown by their SMILES.

The conditions of series [1]: glycerol, mineral oil, caprylic-capric triglyceride, isopropyl myristate, isopropyl palmitate, octyl dodecanol (Eutanol G), isopropyl stearate.
The conditions of series [2]: in the presence of water, acids and bases.

`C/C(=C\C(=O)OCCCCCCCCC(=O)O)C[C@@H]1OC[C@H](C[C@@H]2O[C@H]2[C@@H](C)[C@H](C)O)[C@@H](O)[C@H]1O` [Mupirocin]: in series [1], the “solubility in pharmaceutically acceptable carriers” value is “insoluble”. The “stability (hydrolysis and rearrangement reactions)” value in series [2] is listed as “unstable”.
